Source: patent US8324267B2, “Kinase inhibitors and the use thereof” (Forschungzentrum Karlsruhe GmbH, priority 2001, dated 2012)

Assays:
[1] = tested on: chorioallantoic membrane (CAM); experiment: Chorioallantoic membrane (CAM) angiogenesis assay; format: in vivo; settings: chick embryos, 100 μg of inhibitor on methylcellulose disk, day 5 to day 7; FIG. 3
Description: The chorioallantoic membrane (CAM) assay was carried out as described (Wernert et al.) with chick embryos 5 days after fertilization. Methylcellulose disks (diameter 2 mm) with 100 μg of inhibitor were applied to the CAMs. Evaluation took place on day 7. A. negative control B. MAE 106-treated egg.
FIG. 3: Inhibition of angiogenesis in a chorioallantoic membrane (CAM). A: sham-treated cells (control). B: Mae106-treated cells of the CAM.

[2] = tested on: rat pancreatic tumor cells (1AS); experiment: Apoptosis, Cell Death Detection ELISA (nucleosome ELISA); format: cell-based; settings: 1AS cells, 24 h; FIG. 5
Description: Human endothelial cells (HDMEC) and rat pancreatic tumor cells (1AS) were resuspended (10^5 cells/ml). 50 μl of cell suspension were seeded in 96-well cell culture plates and incubated at 37° C. for 24 h. The cells were then incubated with the stated concentrations of the various inhibitors for a further 24 h. The pro-apoptotic effect of the compounds was determined using the Cell Death Detection ELISA^plus kit (Roche Diagnostics GmbH, Mannheim) in accordance with the manufacturer's statements. The kit contains a photometric enzyme immunoassay for qualitative and quantitative in vitro determination of cytoplasmic histone-associated DNA fragments (mono- and oligo-nucleosomes) released through active cell death (apoptosis). […] The measurements relative to the untreated cells are plotted against the inhibitor concentration.
FIG. 5: Nucleosome ELISA test (Cell Death Detection ELISA). The extent of dead cells of the respective cell line is depicted (as relative absorption at 405 nm) in relation to the use of the inhibitors MAE87, MAE106 and MAZ51 and MAZ51-2.

VEGFR-3 = VEGFR-3 (Homo sapiens, UniProt P35916); experiment: Ligand-induced autophosphorylation in VEGFR-3-expressing PAE cells (immunoprecipitation, Western blot); format: cell-based; settings: for inhibition of ligand-induced autophosphorylation of VEGFR-3: PAE/VEGFR-3 cells, VEGF-C stimulated, 0.5, 5 or 50 μM, FIG. 1
Description: VEGFR-2- and VEGFR-3-expressing PAE cells (pig aorta endothel cells) were incubated with 0.5 μM, 5 μM or 50 μM of the appropriate test compound. The cells were then stimulated with VEGF (VEGFR-2) or VEGF-C (VEGFR-3) or without growth factor as negative control. The cells were harvested after 15 min and immunoprecipitated with VEGFR-2 or VEGFR-3. The immunoprecipitates were blotted after electrophoresis and investigated with anti-phosphotyrosine antibody. The blots were detached and investigated with VEGFR-2 or VEGFR-3 antibody to check the loading.
PAE/VEGFR-2 or PAE/VEGFR-3 were seeded in 15 cm tissue culture tissues and cultivated to 50% confluence. The cells were then starved in serum-free medium (with 0.2% BSA) for 16-24 h (PAE/VEGFR-3) or 72 h […]. After preincubation with 5 ml of 1 mM serum-free medium (1 mM Na3VO4) and various inhibitor concentrations for 30-60 min, the cells were stimulated at 37° C. for 5 min (VEGFR-3) or 8 min (VEGFR-2). The cells were then rapidly washed twice with ice-cold PBS (with 1 mM Na3VO4) and lysed with ice-cold modified RIPA buffer (30 mM Tris-HCl, pH 7.4, 150 mM NaCl, 1 mM EDTA, 0.5% (v/v) Triton X100, 0.5% (w/v) sodium deoxycholate, 10 mM NaF) freshly prepared with 1 mM PMSF, 0.1 U/ml aprotinin, 10 ng/ml leupeptin and 5 mM Na3VO4. The cells were harvested from the plate with the aid of a rubber policeman and collected in centrifuge tubes on ice. The lysates were solubilized by forcing through a syringe with a 25 G needle, and were centrifuged at 4° C./13 000 rpm for 15 min to remove insoluble constituents.
The clear lysates were incubated with 4 μg of anti-VEGFR-2 (C-1158, Santa Cruz) or […] at 4° C. overnight.
The receptor-antibody complex was precipitated by adding 30 μl of protein A-Sepharose (Amersham)/tube and incubating at 4° C. for a further 2 hours.
The Sepharose were then centrifuged at 4° C. for 1 min and washed three times with cold washing buffer (30 mM Tris-HCl, pH 7.4, 150 mM NaCl, 1 mM EDTA, 0.5% (v/v) Triton X100, 0.5% (w/v) sodium deoxycholate, 10 mM NaF) freshly prepared with 1 mM PMSF, 0.1 U/ml aprotinin, 10 ng/ml leupeptin and 5 mM Na3VO4. The remainder of the washing buffer was removed by aspiration through a syringe provided with a 27 G needle. The Sepharose beads were resuspended in 50 μl of SDS loading buffer, boiled and loaded onto a 6% […] gel. After the electrophoretic fractionation, the proteins were fixed on an appropriate membrane by Western blotting. The blots were investigated first with the aid of an anti-phosphotyrosine antibody (RC20:HRPO, Becton Dickinson) and then the first antibody was removed again in order to investigate the blot for the protein loading with specific anti-receptor antibodies. […]

[3] = tested on: MT450 rat mammary carcinoma cells; experiment: Growth of subcutaneous MT450 mammary carcinomas in Wistar Furth rats; format: in vivo; settings: MT450 cells s.c., 8 mg/kg/day intraperitoneally in DMSO, FIG. 8
Description: MT450 rat mammary carcinoma cells were injected subcutaneously into Wistar Furth rats. Treatment with the active substance MAZ51 at 8 mg/kg/day in 100% DMSO or solvent control (100% DMSO) was started the day after injection of the tumor cells. MAZ51 or only solvent was injected intraperitoneally each day. Each test group comprised 8 animals. The tumors were measured every 4-5 days.
FIG. 8: Depiction of the tumor volume as a function of the number of days after tumor cell injection depending on treatment of the MT450 tumor cells with MAZ51 and a DMSO solution (negative control).

Sequence of VEGFR-3 (P35916 25-1363): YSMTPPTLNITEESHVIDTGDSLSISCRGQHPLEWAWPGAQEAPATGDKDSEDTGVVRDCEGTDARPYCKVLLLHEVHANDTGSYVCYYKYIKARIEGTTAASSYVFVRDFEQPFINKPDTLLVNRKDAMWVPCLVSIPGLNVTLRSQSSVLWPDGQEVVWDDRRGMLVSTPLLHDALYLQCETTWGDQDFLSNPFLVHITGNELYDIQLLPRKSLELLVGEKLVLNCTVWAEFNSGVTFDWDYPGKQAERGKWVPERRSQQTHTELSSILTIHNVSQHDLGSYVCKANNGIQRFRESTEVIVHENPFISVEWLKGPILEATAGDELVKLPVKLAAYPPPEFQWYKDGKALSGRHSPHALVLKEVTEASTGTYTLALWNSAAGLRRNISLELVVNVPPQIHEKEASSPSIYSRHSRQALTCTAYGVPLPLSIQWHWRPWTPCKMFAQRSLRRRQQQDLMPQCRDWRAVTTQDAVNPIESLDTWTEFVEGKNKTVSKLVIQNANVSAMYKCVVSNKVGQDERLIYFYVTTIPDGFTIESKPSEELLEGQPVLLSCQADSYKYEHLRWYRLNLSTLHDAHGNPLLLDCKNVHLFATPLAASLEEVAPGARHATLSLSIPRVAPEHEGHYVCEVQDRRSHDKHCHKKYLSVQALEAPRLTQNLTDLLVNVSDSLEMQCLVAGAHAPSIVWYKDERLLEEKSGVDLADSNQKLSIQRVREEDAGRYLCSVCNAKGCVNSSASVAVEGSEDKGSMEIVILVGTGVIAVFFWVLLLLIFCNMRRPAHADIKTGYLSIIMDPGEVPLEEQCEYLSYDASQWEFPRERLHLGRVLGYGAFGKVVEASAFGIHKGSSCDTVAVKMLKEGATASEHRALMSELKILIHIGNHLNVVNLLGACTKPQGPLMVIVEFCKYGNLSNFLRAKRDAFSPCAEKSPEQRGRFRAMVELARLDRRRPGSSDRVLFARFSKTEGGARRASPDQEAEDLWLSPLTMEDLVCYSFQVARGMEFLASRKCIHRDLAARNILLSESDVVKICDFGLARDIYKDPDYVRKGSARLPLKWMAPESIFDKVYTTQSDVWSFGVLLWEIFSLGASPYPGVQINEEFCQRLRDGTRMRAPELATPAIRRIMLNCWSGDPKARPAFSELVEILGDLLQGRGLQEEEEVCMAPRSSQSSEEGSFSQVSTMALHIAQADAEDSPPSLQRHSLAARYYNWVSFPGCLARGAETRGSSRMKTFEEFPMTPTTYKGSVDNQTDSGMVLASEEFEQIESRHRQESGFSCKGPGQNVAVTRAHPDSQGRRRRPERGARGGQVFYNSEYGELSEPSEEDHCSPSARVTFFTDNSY

selectivity of inhibition of autophosphorylation, VEGFR-3 versus VEGFR-2 (VEGFR-3; 5 μM, PAE cells) | Structure (SMILES) | inhibition of angiogenesis (network of blood vessels) in the CAM [1] | induction of apoptosis (relative absorption at 405 nm) [2] | inhibition of ligand-induced autophosphorylation of VEGFR-3 (VEGFR-3) | inhibition of tumor growth (tumor volume) [3]
selectively inhibits VEGFR-3 | CN(C)c1ccc(C=C2C(=O)Nc3ccccc32)c2ccccc12 [MAZ51, 3-(4-Dimethylaminonaphthalen-1-ylmethylene)-1,3-dihydroindol-2-one] | Inhibit Angiogenesis | potent activator of apoptosis | Inhibit the Ligand-Induced Autophosphorylation | inhibited in vivo
 | O=C1Nc2ccccc2C1=Cc1ccc(O)cc1O [MAE87, 3-(2,4-Dihydroxybenzylidene)-1,3-dihydroindol-2-one] | Inhibit Angiogenesis | Induced Apoptosis | Inhibit the Ligand-Induced Autophosphorylation | 
 | COc1ccc(C=C2C(=O)Nc3ccccc32)cc1F [MAE106, 3-(3-Fluoro-4-methoxybenzylidene)-1,3-dihydroindole-2-one] | highly underdeveloped | Induced Apoptosis | Inhibit the Ligand-Induced Autophosphorylation | 
